In the NIST ThermoML archive (doi:10.1021/je900557u):
Numbers after ± are expanded uncertainties. Each block holds one compound with its values, some of them ahead of it.

Experiments:
[1] = 298.15 K; 101.33 kPa; Liquid; Vibrating tube method
[2] = refractive index (Na D-line) (dimensionless); settings: 298.15 K; 101.33 kPa; Liquid; refractometer
[3] = xn = mol fraction of the nth substance listed; settings: 298.15 K, 101 kPa, Liquid, Vibrating tube method

- mass density [1]: 1219.61 ± 0.42 kg/m3
- refractive index [2]: 1.50591 ± 0.00024
SMILES: CCOS(=O)(=O)[O-].CC[n+]1cccc(C)c1 [1-ethyl-3-methylpyridinium ethylsulfate]

SMILES: CCCCCC [hexane] + CCc1ccccc1
- mass density ([3]; x1 = 1): 655.19 ± 0.25 kg/m3

SMILES: CCCCCC [hexane]
- mass density [1]: 655.19 ± 0.26 kg/m3
- refractive index [2]: 1.37234 ± 0.00024

SMILES: Cc1ccccc1 [toluene]
- mass density [1]: 862.17 ± 0.11 kg/m3
- refractive index [2]: 1.49399 ± 0.00014

- mass density ([3]; x2 = 0): 862.51 ± 0.11 kg/m3
- mass density ([3]; x2 = 0.0903): 843.13 ± 0.28 kg/m3
- mass density ([3]; x2 = 0.1776): 824.35 ± 0.29 kg/m3
- mass density ([3]; x2 = 0.2675): 805.21 ± 0.29 kg/m3
- mass density ([3]; x2 = 0.3777): 781.93 ± 0.29 kg/m3
- mass density ([3]; x2 = 0.4931): 757.81 ± 0.3 kg/m3
- mass density ([3]; x2 = 0.5929): 737.22 ± 0.31 kg/m3
- mass density ([3]; x2 = 0.6947): 716.43 ± 0.32 kg/m3
- mass density ([3]; x2 = 0.7984): 695.45 ± 0.33 kg/m3
- mass density ([3]; x2 = 0.8942): 676.28 ± 0.34 kg/m3
SMILES: CCc1ccccc1 [ethylbenzene] + CCCCCC

SMILES: CCCCCC [hexane] + Cc1ccccc1
- mass density ([3]; x1 = 0.083): 841.73 ± 0.31 kg/m3
- mass density ([3]; x1 = 0.1713): 820.75 ± 0.3 kg/m3
- mass density ([3]; x1 = 0.298): 791.72 ± 0.3 kg/m3
- mass density ([3]; x1 = 0.396): 770.3 ± 0.3 kg/m3
- mass density ([3]; x1 = 0.5011): 748.44 ± 0.3 kg/m3
- mass density ([3]; x1 = 0.5949): 729.53 ± 0.3 kg/m3
- mass density ([3]; x1 = 0.6973): 709.61 ± 0.3 kg/m3
- mass density ([3]; x1 = 0.7961): 691.1 ± 0.31 kg/m3
- mass density ([3]; x1 = 0.8946): 673.45 ± 0.32 kg/m3
- mass density ([3]; x1 = 1): 655.19 ± 0.25 kg/m3

SMILES: Cc1ccccc1 [toluene] + CCCCCC
- mass density ([3]; x2 = 0): 862.17 ± 0.11 kg/m3

- mass density [1]: 862.51 ± 0.11 kg/m3
- refractive index [2]: 1.49304 ± 0.00014
SMILES: CCc1ccccc1 [ethylbenzene]
